Literature values as cited in patent US20020010550A1, “PHARMACOKINETIC-BASED DRUG DESIGN TOOL AND METHOD” (priority 1998, published 2002).
Like-named read-outs stand apart in the source and are kept apart here.

Assays:
[1] = Plasma Kinetics
[2] = human
[3] = system: rabbit intestinal tissue (duodenum, jejunum, ileum, colon); details: donor concentration given with each compound
intestinal transport = details: permeability standards

Fluid Volume [1] | k12 [1] | k21 [1] | kelim [1] | bioavailability of fasted patients in clinical trials ([2]; fasted, oral) | absorption ([2]; in vivo) | in vivo biotransformation ([2]; in vivo) | Pe ([3]; Colon) [×10⁻⁶ cm/s] | Pe ([3]; Duodenum) [×10⁻⁶ cm/s] | Pe ([3]; Ileum) [×10⁻⁶ cm/s] | Pe ([3]; Jejunum) [×10⁻⁶ cm/s] | Transport mechanism (intestinal transport) | Compound
76,800 ml | 0.839 | 0.670 | 0.161 | 3-20% | poorly absorbed | no in vivo biotransformation |  |  |  |  |  | Nc1nc2c(ncn2COC(CO)CO)c(=O)[nH]1.[Na] [Gancyclovir, 9-(1,3-dihydroxy-2-propoxymethyl)guanine, monosodium salt]
 |  |  |  |  |  |  | 3.85 | 0.3 | 2.91 | 1.31 |  | C[C@]12CCC(=O)C=C1CC[C@@H]1[C@@H]2[C@@H](O)C[C@@]2(C)[C@H]1CC[C@]2(O)C(=O)CO [hydrocortisone]
 |  |  |  |  |  |  | 5.53 | 1.73 | 4.02 | 3.54 | Passive Paracellular | OC[C@@H](O)[C@@H](O)[C@H](O)[C@H](O)CO [mannitol]
 |  |  |  |  |  |  | 9.28 | 4.55 | 14.5 | 10.2 | Carrier-mediated Influx | O=C[C@H](O)[C@@H](O)[C@H](O)[C@H](O)CO [D-glucose]
